Experimental findings from patent US9617311B2, “Use of PEDF-derived polypeptides for promoting stem cells proliferation and wound healing” (Mackay Memorial Hospital, priority 2011, dated 2017) are described below.

One assay has as its system corneal wound. As to the kind of experiment: Corneal wound healing in mice, fluorescein staining. The format is in vivo, C57BL/6 mice. The following applies: for corneal re-epithelialization after 48 hours: 20 μl eye ointment with 50 μM peptide once a day, 2 mm wound; for residual epithelial defect, percentage of the original wound: 50 μM peptide eye ointment once a day. The procedure: The experiments were performed using eight-week-old female C57BL/6 mice, and the procedures were approved by the Mackay Memorial Hospital Review Board for animal investigation. Animals were anesthetized by an intraperitoneal injection of a mixture of zoletil (6 mg/kg) and xylazine (3 mg/kg). One filter paper (0.9 mm diameter) soaked with 20% ethanol was placed on the central cornea of right eye for one minute and then irrigated extensively with PBS. Subsequently, mechanical epithelial scrape was performed using a punch under a dissection microscope to create a circular injury (2 mm diameter) at the entire corneal region of the mouse eye without encroaching the corneal stroma, limbus or conjunctiva.
Each synthetic peptide (the 39-mer, 34-mer, 29-mer, 25-mer, 20-mer, 18-mer, Mo 29-mer or Mo 20-mer) was reconstituted in DMSO as stock (5 mM) and mixed with TOBREX® eye ointment (Alcon; containing 0.3% Tobramycin and 0.5% Chlorobutanol) to a concentration 50 μM. In each of the treatment group (n=6-10), the right eye was treated with 20 μl eye ointment containing the synthetic peptide once a day after the scrape injury. In the control group (n=20), right eye was treated with 20 μl of eye ointment mixed with vehicle DMSO. Wound size was determined by staining with topical fluorescein (Fluor-I-Strip, Ayerst Laboratories, Philadelphia, Pa.) and photographed with a digital camera. The area of defect was quantified from the photographs using a computer-assisted image analyzer (Adobe Photoshop CS3 10.0) and was calculated as the percentage of residual epithelial defect at each time point/initial wound area.
To investigate the effect of PEDF-derived short peptides on corneal wound healing in mice, corneal wound was created by a circular punch (2 mm diameter), then control eye-ointment or eye-ointment containing the short synthetic PEDF peptide(s) of this invention was applied to the wounded eye, and wound healing was subsequently evaluated by fluorescein staining. No significant differences in the size of the initial abrasion were noted between synthetic PEDF peptide-treated and control mice.

The test system of assay [1] is limbal epithelial stem cells (LSCs). As to the kind of experiment: In vitro LSC proliferation, BrdU pulse-labeling with ΔNp63α immunostaining. The format is cell-based, New Zealand white rabbits. The following applies: BrdU 2 hours; for percentage of BrdU and ΔNp63α-double positive cells per total ΔNp63α-positive cells: 25 nM peptide or 4.5 nM PEDF in medium, control medium 3.0±0.5%, mean±SEM. The text has this: LSCs were isolated from six-month-old New Zealand white rabbits and used for cell-suspension culture in accordance with the method previously described by Cheng et al. (The growth-promoting effect of KGF on limbal epithelial cells is mediated by upregulation of DeltaNp63alpha through the p38 pathway. J Cell Sci 2009; 122 (Pt 24): 4473-4480) and Wang et al. (Importin 13 serves as a potential marker for corneal epithelial progenitor cells. Stem Cells 2009; 27: 2516-2526) with a slight modification. Rabbit limbal tissues were washed in PBS containing 100 U/ml penicillin and 50 μg/ml gentamicin. After carefully removing the iris, and excessive sclera, the limbal rings were exposed to dispase II (1.2 IU/ml in Hanks' balanced salt solution free of Mg^2+ and Ca^2+) at 4° C. for 16 hours. The loosened epithelial sheets were removed with a cell scraper and separated into single cells by enzymatic digestion (0.05% trypsin, and 0.01% EDTA) for 15 min at 37° C. with gentle shaking and transferred to a stop medium (9 ml of HEPES-buffered DMEM containing 10% FBS). Cells were then collected by centrifugation (400×g for 5 min).
About 1×10^5 cells were seeded on each wells of a 6-well plate and incubated in a DMEM/Ham's F-12 basal medium (10 mM HEPES, 5 ng/ml human EGF, 1% SITE liquid medium, antibiotic-antimicotic solutions, 0.5% DMSO and 0.5 μg/ml hydrocortisone) supplemented with 10% FBS for 2 days, and then shifted to a basal medium or basal medium containing 4.5 nM PEDF, 25 nM 39-mer, 25 nM 34-mer, 25 nM 29-mer, 25 nM 25-mer, 25 nM 20-mer, 25 nM 18-mer, 25 nM Mo 29-mer or 25-nM Mo 20-mer. The cells were continued cultivated at 37° C. under 5% CO2 for another 3 days until they reached confluence (passage 0). LSCs were co-cultured with MMC-treated NIH-3T3 fibroblast feeder cells located within trans-well (0.4 μm pore, BD Biosciences, Bedford, Mass.). For passage purpose, near-confluent cells were harvested again by enzymatic treatment (i.e., 0.25% trypsin), and then 1×10^5 subcultured cells were further cultured in the respective medium, and proliferative capacity of cells was compared every 4 days after continuously culture-subculture (passage).
De-paraffinized tissue sections or 4% paraformaldehyde-fixed LSCs were blocked with 10% goat serum and 5% BSA in PBST (PBS containing 0.1% Tween-20) for 1 hour. Staining was done using primary antibodies against ΔNp63α (1:150 dilution), BrdU (1:250 dilution), and keratin-3 (1:250 dilution) at 37° C. for 2 hours, followed by incubation with the appropriate rhodamine- or FITC-conjugated donkey IgG (1:500 dilution) for 1 hour at RT. Nuclei were identified by counterstaining with Hoechst 33258 for 7 minutes. Images were captured using a Zeiss epifluorescence microscope with a CCD camera and photographs were taken by using the Axiovert software.
2×10^5 limbal cells (the 1st passage) were seeded at a slide coated with FNC COATING MIX® solution (Athena Enzyme Systems, Baltimore, Md.) and incubated with a culture medium for one day. BrdU (final, 10 μM) was added to the culture for 2 hours. After being fixed with 4% paraformaldehyde, cells were exposed to cold methanol for 2 minutes, and then treated with 1 N HCl at RT for 1 hour before performing immunofluorescence. For animal study, BrdU was reconstituted in DMSO as stock (80 mM). 10 μl of BrdU mixed with 90 μl of PBS was intraperitoneally injected into mouse 3 hours prior to euthanasia. DNA synthesis was assessed by BrdU labeling with anti-BrdU antibodies.

Assay [2] relates to full-thickness skin excisional wounds. As to the kind of experiment: Skin wound healing in mice, wound area from photographs. It is filed as in vivo, C57L/B6 mice. The following applies: for residual epithelial defects, percentage of the original wound: 25 μl skin ointment with 50 μM peptide once daily. The procedure: FIG. 6A provides photographs and FIG. 6B is a histogram, and together, they illustrate the skin (epithelial) wound-healing of mice from treatment groups according to another example of the present disclosure. 4 mm punch wounds were made on the dorsal side of C57/B6 mice. Skin ointment was treated once a day. Photographs of the wounded skin and ruler (scale 10 mm) were captured with a CCD camera (Olympus). The residual epithelial defect (%) is presented as percentage of the original wound. Data are shown as mean±SE.
To perform full-thickness skin excision, 8- to 10-week-old C57L/B6 mice were respectively anesthetized by an intraperitoneal injection of a mixture of zoletil (6 mg/kg) and xylazine (3 mg/kg). Two full-thickness skin excisional wounds, 4 mm in diameter were made on either side of the dorsal midline using Sklar Tru-Punch disposable biopsy punch (Sklar, West Chester, Pa., USA). In each treatment group (n=6), the skin wound was treated with 25 μl skin ointment (containing 50 μM synthetic peptide and 0.006 μl DMSO vehicle) once daily after the skin scraping. In the control group (n=6), skin wound was treated with 25 μl of skin ointment with equal concentration of DMSO. Each gram of the above skin ointment contains 5 mg neomycin sulfate and 12.5 mg Bacitracin Zinc. Wounds were left uncovered and harvested 4 and 7 days after injury. Mice were housed individually during the healing period.
The area of wound was quantified from the photographs using a computer-assisted image analyzer (Adobe Photoshop CS3 10.0) and was calculated as the percentage of residual epithelial defect at each time point/initial wound area.

The subject of assay [3] is hair follicle stem cells (HFSCs). As to the kind of experiment: In vitro HFSC proliferation, BrdU pulse-labeling with Lgr6 immunostaining. It is filed as cell-based, Human. The note with it: 50 nM peptide or 4.5 nM PEDF in medium; BrdU 2 hours; control 31.9±5.6%. Here is the method: FIG. 5A provides immunofluorescence microscopy photographs and FIG. 5B is a histogram, and together, they illustrate the in vitro proliferation of HFSCs from treatment groups according to one example of the present disclosure. HFSC proliferation was determined by BrdU labeling for 2 hours. HFSCs (Lgr6, green) and BrdU (red) were detected by immunofluorescence microscopy (original magnification, ×1000). Twenty randomly selected fields in each group were photographed, and the percentage of BrdU and Lgr6-double positive cells (pale pink) per total Lgr6-positive cells was calculated. *P<0.001 versus untreated cells.
Human hair follicles were collected from hairs of healthy donors. The follicles were dissected with tweezers under microscope and most of adipose and connective tissue was removed. The bulge region of hair follicle under the sebaceous gland was cut and then bulge fragments (including central isthmus) were transferred into a 35-mm dish containing 1 ml of collagenase A (1 mg/ml; Roche) and incubated for 1.5 hours at 37° C. to digest the collagen capsule. Subsequently, the bulge fragments were transferred into a fresh cell culture dish containing dispase II (2.4 U/ml)/0.05% trypsin and further incubated for 1.5 hours at 37° C. to obtain a single cell suspension.
After mechanical dissection and enzymatic digestion, the suspended bulge cells isolated from five bulge fragments were seeded into a well of 12-well culture plate and incubated with the basal medium for 5 days to facilitate cell adhesion. The basal medium contains four parts Gibco calcium-free Dulbecco's modified Eagle's medium (DMEM) and one part Ham's F12 medium (calcium concentration reached about 0.25 mM) and supplemented with 10% FBS, 10 ng/ml human epidermal growth factor, 500 mg/I L-glutamine, 0.2% bovine pituitary extract, […] hydrocortisone, 1% ITSE as well as antibiotic-antimicotic solutions. Cultivation method was similar to that of Blazejewska et al. (Stem Cells 2009; 27:642). After 5 days of incubation, cells were cultured in the serum-free basal medium or basal medium containing 4.5 nM PEDF, 50 nM 29-mer, or 50 nM 20-mer, until near confluence (about 2 weeks; passage 0). The medium was changed every 2 to 3 days. The bulge cells were co-cultured with 3T3 fibroblast feeder cells. For passage, near-confluent cells were harvested by enzymatic treatment (i.e., 0.25% trypsin) for 5 min at 37° C. Approximately 1×10^5 human bulge cells were transferred to a new dish and allowed to grow for 14 days to near confluence (passage 1). […]

The mark [4] stands for this setting: day 4 post-injury, control 61.5±3.2%.
Where [5] appears, read: day 7 post-injury, control 44.5±5.3%.

“ALSALSLGAEQRTESIIHRALYYDLISSPDIHGT [34-mer, short synthetic PEDF peptide derived from the 39-mer]”: the “corneal re-epithelialization after 48 hours” value (from here on “corneal re-epithelialization”) in the assay with corneal wound is “complete corneal re-epithelialization”. The “residual epithelial defect, percentage of the original wound” value came to 40.6±7.2% with corneal wound (24 hours, control 84.9±5.1%) and 4.6±2.1% with corneal wound (48 hours, control 39.5±3.1%). For the same molecule, in assay [1], the “percentage of BrdU and ΔNp63α-double positive cells per total ΔNp63α-positive cells” value (shortened to “percentage … per total ΔNp63α-positive cells”) is on record as 30.0±3.4%. For the same molecule, the “residual epithelial defects, percentage of the original wound” value in assay [2] (setting [4]) came out at 41.4±2.5%; in assay [2] (setting [5]) it was 17.9±6.1%.
Take EQRTESIIHRALYYDLISSPDIHGT [25-mer]: the “corneal re-epithelialization” value with corneal wound was “incompletely healed wounds”. Besides, in assay [1] (25 nM peptide in medium), the “enhanced LSC proliferation versus control medium” value is “enhanced proliferation was not observed”. The “promotion of skin wound healing” value in assay [2] (days 4 and 7, 50 μM peptide skin ointment once daily) is “not able to promote wound healing”.
Regarding “LSVATALSALSLGAEQRTESIIHRALYYDLISSPDIHGT [39-mer, synthetic peptide, residues 83-121 of human PEDF]”, the “corneal re-epithelialization” value with corneal wound was “complete corneal re-epithelialization”. For the same molecule, the “residual epithelial defect, percentage of the original wound” value was 37.2±4.3% in the assay on corneal wound (24 hours, control 84.9±5.1%) and 4.8±2.7% with corneal wound (48 hours, control 39.5±3.1%). The “percentage … per total ΔNp63α-positive cells” value in assay [1] is 30.1±1.9%. The “residual epithelial defects, percentage of the original wound” value in assay [2] (setting [4]) is on record as 48.1±3.2%; in assay [2] (setting [5]), 18.4±5.7%.

B1: full-length PEDF: Native human pigment epithelium-derived factor purified from human plasma via collagen I-sepharose resin (protein, listed as Homo sapiens)
chain: MQALVLLLCIGALLGHSSCQNPASPPEEGSPDPDSTGALVEEEDPFFKVPVNKLAAAVSNFGYDLYRVRSSTSPTTNVLLSPLSVATALSALSLGAEQRTESIIHRALYYDLISSPDIHGTYKELLDTVTAPQKNLKSASRIVFEKKLRIKSSFVAPLEKSYGTRPRVLTGNPRLDLQEINNWVQAQMKGKLARSTKEIPDEISILLLGVAHFKGQWVTKFDSRKTSLEDFYLDEERTVRVPMMSDPKAVLRYGLDSDLSCKIAQLPLTGSMSIIFFLPLKVTQNLTLIEESLTSEFIHDIDRELKTVQAVLTVPKLKLSYEGEVTKSLQEMKLQSLFDSPDFSKITGKPIKLTQVEHRAGFEWNEDGAGTTPSPGLQPAHLTFPLDYHLNQPFIFVLRDTDTGALLFIGKILDPRGP
In the case of B1, the “percentage of BrdU and Lgr6-double positive cells per total Lgr6-positive cells” value in assay [3] is 73.8±6.0%. Further, the “percentage … per total ΔNp63α-positive cells” value in assay [1] came to 22.0±1.5%.
